Measurements reported in patent publication US8475862B2, “Isothiocyanate preservatives and methods of their use” (The Procter & Gamble Company, priority 2003, dated 2013).

Key:
[1] = system: four lactic acid spoilage bacteria (Lactobacillus fructivorans, L. fermentum, L. plantar and L. hilgardii); experiment: Ketchup spoilage challenge, plate counts of inoculated lactic acid bacteria; format: cell-based; settings: 250 CFU/gm inoculum, stored at 22° C.
Procedure: (§1) Ketchup is an acid food with a pH of 3.5-3.8 that can be cold filled at 100±20° F. in PET bottles. The product is vulnerable during filling operation at the filler, susceptible for recontamination by adventitious spoilage microorganisms such as lactic acid bacteria (LAB) and acid and preservative tolerant yeasts (APRY).
(§2) All natural tomato ketchup products were made, a first sample with sodium (ANK) and a second sample with reduced sodium (ANK-RS). Each sample was split, and to each about 150 ppm and 300 ppm 4-hydroxybenzyl isothiocyanate was added. The samples were further split (for a total of eight samples) and inoculated as follows. Microorganisms were inoculated into four samples with a cocktail consisting of four separate lactic acid spoilage bacteria (250 CFU/gm) such as Lactobacillus fructivorans, L. fermentum, L. plantar and L. hilgardii. The four remaining samples were inoculated with Zygosaccharomyces bailii—(150-200 CFU/gm) previously isolated from a ketchup spoilage incident.
(§3) A summary of the samples is as follows: • 1: ANK—150 ppm 4HBITC—inoculated with four lactic acid bacteria • 2: ANK—150 ppm 4HBITC—inoculated with Z. bailii • 3: ANK—300 ppm 4HBITC—inoculated with four lactic acid bacteria • 4: ANK—300 ppm 4HBITC—inoculated with Z. bailii • 5: ANK-RS—150 ppm 4HBITC—inoculated with four lactic acid bacteria • 6: ANK-RS—150 ppm 4HBITC—inoculated with Z. bailii • 7: ANK-RS—300 ppm 4HBITC—inoculated with four lactic acid bacteria • 8: ANK-RS—300 ppm 4HBITC—inoculated with Z. bailii
(§4) The inoculated ketchup samples were stored at 22° C. […] The lactic acid bacteria and yeasts counts were performed as described in FDA BAM manual. The plate counts were then used to identify the degree of microbial kill or stasis in the inoculated product. […] At 150 ppm, the declining trend was gradual taking 336 hours to non-detectable level for both ANK and ANK-RS. Un-inoculated controls grew to level of 1000-1500 CFU/gm. In the Z. bailii inoculated samples, counts were reduced to non-detectable level at 96 hours, both with and without 4-hydroxybenzyl isothiocyanate. However, there was no regrowth in the samples with 4-hydroxybenzyl isothiocyanate up to 336 hours (150 and 300 ppm). Regrowth was noticed around 96-108 hours ending at 1×10^6 CFU/gm in control samples without 4-hydroxybenzyl isothiocyanate.

[2] = Moisture sensitivity test: isothiocyanate suspended in aqueous phosphate buffer, level measured by supercritical fluid chromatography; format: physicochemical; settings: white mustard essential oil suspended in aqueous phosphate buffer, pH about 3.6, about 20-23° C.
Procedure: As used herein, the term “moisture-sensitive” means that the isothiocyanate compound degrades in the presence of water. This degradation proceeds via a hydrolysis reaction, thereby leading to a reduction in level of the active isothiocyanate antimicrobial agent with time of storage in the presence of water. The method for determining moisture sensitivity is set forth in the Test Method section below. […]
These solutions are analyzed by supercritical fluid chromatography using the method described by Buskov, S. et al., “Supercritical fluid chromatography as a method of analysis for the determination of 4-hydroxybenzylglucosinolate degradation products,” Journal of Biochemical and Biophysical Methods, Vol. 43, pp 157-174 (2000) with the following modifications. […] The eluate is detected at 226 and 252 nm. […]
Moisture-sensitive isothiocyanate compounds are identified by suspending the isothiocyanate containing material in an aqueous phosphate buffer (pH of about 3.6) at room temperature. […] The extraction procedure is repeated after 24 hours and the level of residual isothiocyanate compound is measured by supercritical fluid chromatography. […]

Zygosaccharomyces bailii = experiment: Ketchup spoilage challenge, plate counts of inoculated yeast; format: cell-based; settings: 22° C.; for regrowth of Z. bailii up to 336 hours: controls regrew around 96-108 hours
Procedure: as §1, §2, §3
as §4, with “However, there was no regrowth in the samples with 4-hydroxybenzyl isothiocyanate up to 336 hours (150 and 300 ppm). Regrowth was noticed around 96-108 hours ending at 1×10^6 CFU/gm in control samples without 4-hydroxybenzyl isothiocyanate.” left out

## Oc1ccc(CN=C=S)cc1 [4-hydroxybenzyl isothiocyanate]
[1]; ANK ketchup, 150 ppm
  time until lactic acid bacteria counts reduced to non-detectable level: 336 h
[1]; ANK ketchup, 300 ppm
  time until lactic acid bacteria counts reduced to non-detectable level: ≤ 96 h
[1]; ANK-RS (reduced sodium) ketchup, 150 ppm
  time until lactic acid bacteria counts reduced to non-detectable level: 336 h
[1]; ANK-RS (reduced sodium) ketchup, 300 ppm
  time until lactic acid bacteria counts reduced to non-detectable level: ≤ 168 h
[2]
  percent reduction in level of 4-hydroxybenzyl isothiocyanate after 24 hours: about 72%
Zygosaccharomyces bailii; 150-200 CFU/gm inoculum, same result with and without 4-hydroxybenzyl isothiocyanate
  time at which Z. bailii counts reduced to non-detectable level: 96 h
Zygosaccharomyces bailii; 150 ppm
  regrowth of Z. bailii up to 336 hours: no regrowth
Zygosaccharomyces bailii; 300 ppm
  regrowth of Z. bailii up to 336 hours: no regrowth
